In patent US10968200B2, “Salts of an LSD1 inhibitor and processes for preparing the same” (priority 2018, dated 2021):
Where a name gives a salt, the structure may show the parent alone.

Experiments:
[1] = biological target: T1, LSD-1 enzyme (LSD1/KDM1A) (Homo sapiens, UniProt O60341); assay: LANCE LSD1/KDM1A histone demethylase biochemical assay; settings: 1 nM LSD-1 enzyme, 1 hour preincubation at 25° C., Biotin-labeled Histone H3 peptide substrate
T1 construct: purchased ENZO BML-SE544-0050
Experimental: LANCE LSD1/KDM1A demethylase assay-10 μL of 1 nM LSD-1 enzyme (ENZO BML-SE544-0050) in the assay buffer (50 mM Tris, pH 7.5, 0.01% Tween-20, 25 mM NaCl, 5 mM DTT) were preincubated for 1 hour at 25° C. with 0.8 μL compound/DMSO dotted in black 384 well polystyrene plates. Reactions were started by addition of 10 μL of assay buffer containing 0.4 μM Biotin-labeled Histone H3 peptide substrate: ART-K(Me1)-QTARKSTGGKAPRKQLA-GGK(Biotin) SEQ ID NO:1 (AnaSpec 64355) and incubated for 1 hour at 25° C. Reactions were stopped by addition of 10 μL 1× LANCE Detection Buffer (PerkinElmer CR97-100) supplemented with 1.5 nM Eu-anti-unmodified H3K4 Antibody (PerkinElmer TRF0404), and 225 nM LANCE Ultra Streptavidin (PerkinElmer TRF102) along with 0.9 mM Tranylcypromine-HCl (Millipore 616431). After stopping the reactions plates were incubated for 30 minutes and read on a PHERAstar FS plate reader (BMG Labtech).

[2] = Competitive slurry experiment, stability relationship between Forms II-V; type: physicochemical; settings: competitive slurry of Forms II-V in methanol, 23-25° C., 65-75% humidity, XRPD after 4 h and 20 h
Experimental: The transformation of Compound 1 di-HCl solid forms was evaluated in competitive slurry experiments in methanol at 23-25° C. and 65-75% humidity. The experiments were performed with a mixture of four polymorphs (Form II through Form V), according to the following procedure.
10.0 mg of Compound 1 di-HCl Form II was added to a saturated solution of Compound 1 di-HCl Form II in methanol (1.0 mL) and stirred to give a thin slurry. A mixture of Form III (10.29 mg), Form IV (10.39 mg), and Form V (10.95 mg) were added to the slurry. The mixture was stirred for 4 h at 25° C.
A portion of the mixture was filtered after 4 h. The filtered solids were analyzed by XRPD and determined to be Form II in addition to a minor amount of amorphous solid.
A portion of the mixture was filtered after 20 h. The filtered solids were analyzed by XRPD and determined to be Form II in addition to a minor amount of amorphous solid. The sample was then dried under vacuum at 46-48° C. for 36 h. The dried solids were analyzed by XRPD and determined to be Form II.

Structure (SMILES)	IC50 [1] [nM]	relative stability of solid forms [2]
N#CCC1(N2CCC(N[C@@H]3C[C@H]3c3ccccc3)CC2)CN(S(N)(=O)=O)C1 [Compound 1, 3-(cyanomethyl)-3-(4-{[(1R,2S)-2-phenylcyclopropyl]amino}piperidin-1-yl)azetidine-1-sulfonamide]	≤ 100	
N#CCC1(N2CCC(N[C@@H]3C[C@H]3c3ccccc3)CC2)CN(S(N)(=O)=O)C1 [Form II, 3-(cyanomethyl)-3-(4-{[(1R,2S)-2-phenylcyclopropyl]amino}piperidin-1-yl)azetidine-1-sulfonamide dihydrochloride]		most stable form
